Measurements taken from patent US8927500B2, “Peptidomimetic macrocycles” (Aileron Therapeutics, Inc., priority 2012, dated 2015).
Where two headings read alike, the source gives them in different places. Where a SMILES comes first, the peptide text is derived from it. Bridges are numbered along the chain shown (N, C = ends). [ ]: non-standard residue; d: D form. Trp(6-Cl) = N[C@@H](Cc1c[nH]c2cc(Cl)ccc12)C(=O)O; R8 = C=CCCCCCC[C@@](C)(N)C(=O)O; Cba = N[C@@H](CC1CCC1)C(=O)O; S5 = C=CCCC[C@](C)(N)C(=O)O; Nle = CCCC[C@H](N)C(=O)O; Aib = CC(C)(N)C(=O)O

Experiments:
MDMX = biological target: T1, MDMX (Homo sapiens, UniProt O15151); test: Competitive fluorescence polarization assay for MDMX; assay type: binding; details: competitive FP assay; for IC50: read-out: IC50 (MDMX)
T1 sequence (O15151 1-125): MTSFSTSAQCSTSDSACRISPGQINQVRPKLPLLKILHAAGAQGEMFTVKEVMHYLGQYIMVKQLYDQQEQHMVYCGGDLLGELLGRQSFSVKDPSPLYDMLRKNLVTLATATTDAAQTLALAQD

MDM2 = MDM2 (Homo sapiens, UniProt Q00987); test: Competitive fluorescence polarization assay for MDM2; assay type: binding; details: competitive FP assay, MDM2; for IC50: read-out: IC50 (MDM2)
Chain of MDM2 (Q00987 1-125): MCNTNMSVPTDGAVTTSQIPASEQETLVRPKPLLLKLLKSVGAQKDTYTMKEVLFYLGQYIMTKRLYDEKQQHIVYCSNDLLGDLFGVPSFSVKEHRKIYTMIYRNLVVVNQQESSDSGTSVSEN

SMILES	IC50 (MDMX) [nM]	Ki (MDMX; read-out: Ki (MDMX)) [nM]	IC50 (MDM2) [nM]	Ki (MDM2; read-out: Ki (MDM2)) [nM]	Ki (MDMX; Ki (MDMX)) [nM]	Ki (MDM2; Ki (MDM2)) [nM]
CC(=O)N[C@@H](CC(C)C)C(=O)N[C@H](C(=O)N[C@@H](Cc1ccccc1)C(=O)N[C@]1(C)CCCCCCC=CCCC[C@@](C)(C(=O)N[C@@H](CO)C(=O)N[C@@H](C)C(=O)N[C@@H](Cc2ccccc2)C(N)=O)NC(=O)[C@H](CC2CCC2)NC(=O)[C@H](CCC(N)=O)NC(=O)[C@H](C)NC(=O)[C@H](Cc2c[nH]c3cc(Cl)ccc23)NC(=O)[C@H](Cc2ccc(O)cc2)NC(=O)[C@H](CCC(=O)O)NC1=O)[C@@H](C)O [compound 261] (Ac-LTF[R8]EY[Trp(6-Cl)]AQ[Cba][S5]SAF-NH2; staple 4-11)	100 to 1000	10 to 100	10 to 100	< 10	–	–
CCCC[C@H](NC(=O)[C@H](C)NC(=O)[C@H](C)NC(=O)[C@]1(C)CCCC=CCCCCCC[C@@](C)(NC(=O)[C@H](Cc2ccccc2)NC(=O)[C@@H](NC(=O)[C@H](CC(C)C)NC(C)=O)[C@@H](C)O)C(=O)N[C@@H](C)C(=O)N[C@@H](Cc2ccc(C(=O)O)cc2)C(=O)N[C@@H](Cc2c[nH]c3ccccc23)C(=O)N[C@@H](C)C(=O)N[C@@H](CCC(N)=O)C(=O)N[C@@H](CCC(C)C)C(=O)N1)C(=O)N[C@@H](C)C(N)=O (single isomer, unassigned) [compound 310]	10 to 100	10 to 100	10 to 100	< 10	–	–
CC(=O)N[C@@H](CC(C)C)C(=O)N[C@H](C(=O)N[C@@H](Cc1ccccc1)C(=O)N[C@]1(C)CCCCCCC=CCCC[C@@](C)(C(=O)N[C@@H](C)C(=O)N[C@@H](C)C(=O)N[C@@H](C)C(=O)N[C@@H](C)C(=O)N[C@@H](C)C(=O)N[C@H](C)C(N)=O)NC(=O)[C@H](CC(C)C)NC(=O)[C@H](CCC(N)=O)NC(=O)C(C)(C)NC(=O)[C@H](Cc2c[nH]c3ccccc23)NC(=O)[C@H](Cc2ccc(O)cc2)NC(=O)[C@H](CCC(=O)O)NC1=O)[C@@H](C)O [compound 561] (Ac-LTF[R8]EYW[Aib]QL[S5]AAAAA[dA]-NH2; staple 4-11)	–	–	–	–	10 to 100	< 10
CCCC[C@H](NC(=O)[C@H](C)NC(=O)[C@H](C)NC(=O)[C@]1(C)CCCC=CCCCCCC[C@@](C)(NC(=O)[C@H](Cc2ccccc2)NC(=O)[C@H](C)NC(=O)[C@H](C)NC(=O)[C@H](C)NC(C)=O)C(=O)N[C@@H](CCC(=O)O)C(=O)N[C@@H](Cc2ccc(O)cc2)C(=O)N[C@@H](Cc2c[nH]c3ccccc23)C(=O)N[C@@H](C)C(=O)N[C@@H](CCC(N)=O)C(=O)N[C@@H](CC(C)C)C(=O)N1)C(=O)N[C@@H](C)C(N)=O [compound 372] (Ac-AAAF[R8]EYWAQL[S5]AA[Nle]A-NH2; staple 5-12)	100 to 1000	10 to 100	100 to 1000	10 to 100	–	–
CCCC[C@H](NC(=O)[C@H](C)NC(=O)[C@H](C)NC(=O)[C@]1(C)CCCC=CCCCCCC[C@@](C)(NC(=O)[C@H](Cc2ccccc2)NC(=O)[C@H](C)NC(=O)[C@H](C)NC(C)=O)C(=O)N[C@@H](CCC(=O)O)C(=O)N[C@@H](Cc2ccc(O)cc2)C(=O)N[C@@H](Cc2c[nH]c3ccccc23)C(=O)N[C@@H](C)C(=O)N[C@@H](CCC(N)=O)C(=O)N[C@@H](CC(C)C)C(=O)N1)C(=O)N[C@@H](C)C(N)=O [compound 371] (Ac-AAF[R8]EYWAQL[S5]AA[Nle]A-NH2; staple 4-11)	100 to 1000	10 to 100	100 to 1000	10 to 100	–	–
CC[C@H](C)[C@H](NC(=O)[C@H](Cc1c[nH]cn1)NC(=O)[C@H](C)NC(=O)[C@]1(C)CCCC=CCCCCCC[C@@](C)(NC(=O)[C@H](Cc2ccccc2)NC(=O)[C@@H](NC(=O)[C@H](CC(C)C)NC(C)=O)[C@@H](C)O)C(=O)N[C@@H](CCC(=O)O)C(=O)N[C@@H](Cc2c[nH]cn2)C(=O)N[C@@H](Cc2c[nH]c3ccccc23)C(=O)N[C@@H](C)C(=O)N[C@@H](CCC(N)=O)C(=O)N[C@@H](CC(C)C)C(=O)N1)C(=O)N[C@H](C)C(N)=O (single isomer, unassigned) [compound 206]	100 to 1000	10 to 100	10 to 100	< 10	–	–

Further lines, with some results ahead:

IC50 (MDMX) [nM]	Ki (MDMX; read-out: Ki (MDMX)) [nM]	IC50 (MDM2) [nM]	Ki (MDM2; read-out: Ki (MDM2)) [nM]	SMILES	Ki (MDMX; Ki (MDMX)) [nM]	Ki (MDM2; Ki (MDM2)) [nM]
100 to 1000	10 to 100	10 to 100	< 10	CC(=O)N[C@@H](CC(C)C)C(=O)N[C@H](C(=O)N[C@@H](Cc1ccccc1)C(=O)N[C@]1(C)CCCCCCC=CCCC[C@@](C)(C(=O)N[C@@H](C)C(=O)N[C@@H](C)C(=O)N[C@@H](CC(C)C)C(=O)N[C@H](C)C(N)=O)NC(=O)[C@H](CC(C)C)NC(=O)[C@H](CCC(N)=O)NC(=O)[C@H](C)NC(=O)[C@H](Cc2c[nH]c3ccccc23)NC(=O)[C@H](Cc2ccc(O)cc2)NC(=O)[C@H](C)NC1=O)[C@@H](C)O (single isomer, unassigned) [compound 215]	–	–
< 10	< 10	< 10	< 10	CC(=O)N[C@@H](CCCNC(=N)N)C(=O)N[C@H](C(=O)N[C@@H](Cc1ccccc1)C(=O)N[C@]1(C)CCCCCCC=CCCC[C@@](C)(C(=O)N[C@@H](CO)C(=O)N[C@@H](C)C(=O)N[C@@H](C)C(N)=O)NC(=O)[C@H](CC2CCC2)NC(=O)[C@H](CCC(N)=O)NC(=O)[C@H](C)NC(=O)[C@H](Cc2c[nH]c3ccccc23)NC(=O)[C@H](Cc2ccc(O)cc2)NC(=O)[C@H](CCC(=O)O)NC1=O)[C@@H](C)O [compound 360] (Ac-RTF[R8]EYWAQ[Cba][S5]SAA-NH2; staple 4-11)	–	–
10 to 100	< 10	10 to 100	< 10	CCCC[C@H](NC(=O)[C@H](C)NC(=O)[C@H](C)NC(=O)[C@]1(C)CCCC=CCCCCCC[C@@](C)(NC(=O)[C@H](Cc2ccccc2)NC(=O)[C@@H](NC(=O)[C@H](CC(C)C)NC(=O)[C@H](C)NC(=O)[C@H](C)NC(C)=O)[C@@H](C)O)C(=O)N[C@@H](CCC(=O)O)C(=O)N[C@@H](Cc2ccc(O)cc2)C(=O)N[C@@H](Cc2c[nH]c3ccccc23)C(=O)N[C@@H](C)C(=O)N[C@@H](CCC(N)=O)C(=O)N[C@@H](CC(C)C)C(=O)N1)C(=O)N[C@@H](C)C(N)=O [compound 375] (Ac-AALTF[R8]EYWAQL[S5]AA[Nle]A-NH2; staple 6-13)	–	–
100 to 1000	10 to 100	< 10	< 10	CC(=O)N[C@@H](CC(C)C)C(=O)N[C@H](C(=O)N[C@@H](Cc1ccccc1)C(=O)N[C@]1(C)CCCCCCC=CCCC[C@@](C)(C(=O)N[C@@H](CO)C(=O)N[C@@H](C)C(=O)N[C@@H](C)C(N)=O)NC(=O)[C@H](CC(C)C)NC(=O)[C@H](CCC(N)=O)NC(=O)[C@H](C)NC(=O)[C@H](Cc2c[nH]c3ccccc23)NC(=O)[C@H](CCC(=O)O)NC(=O)[C@H](C)NC1=O)[C@@H](C)O (single isomer, unassigned) [compound 166]	–	–
100 to 1000	10 to 100	10 to 100	< 10	CCCC[C@H](NC(=O)[C@H](Cc1c[nH]c2ccccc12)NC(=O)[C@H](C)NC(=O)[C@]1(C)CCCC=CCCCCCC[C@@](C)(NC(=O)[C@H](Cc2ccccc2)NC(=O)[C@@H](NC(=O)[C@H](CCC(=O)O)NC(C)=O)[C@@H](C)O)C(=O)N[C@@H](C)C(=O)N[C@@H](Cc2ccc(O)cc2)C(=O)N[C@@H](Cc2c[nH]c3ccccc23)C(=O)N[C@@H](C)C(=O)N[C@@H](CCC(N)=O)C(=O)N[C@@H](CC2CCC2)C(=O)N1)C(=O)N[C@@H](C)C(N)=O [compound 240] (Ac-ETF[R8]AYWAQ[Cba][S5]AW[Nle]A-NH2; staple 4-11)	–	–
